Consider two molecules from ChEMBL document CHEMBL1158913, “Peroxy Aliphatic Esters from the Sponge Plakortis lita” (1990).

The test system of the experiment is P388. The experiment is described as follows: Cytotoxicity against mouse P388 cells. As to conditions: read-out: ED50 (the source's name). The class given is functional.

SMILES strings stand for the structures.

Turning to `CCCCCCCCCCCCCCCC[C@@]1(OC)C=C[C@@H](CC(=O)OC)OO1` [CHONDRILLIN], the EC50 was greater than 10 µg/mL.

Take `C/C=C/C=C/CCCCCCCCCCC[C@]1(OC)C=C[C@H](CC(=O)OC)OO1`: the EC50 is greater than 10 µg/mL.
